The values below come from ChEMBL document CHEMBL5518198, “Three Rounds of Stability-Guided Optimization and Systematical Evaluation of Oncolytic Peptide LTX-315” (J Med Chem, 2024).

Data set [1] in a line: Drug localization in human HeLa cells mitochondria at 25 uM by Mito-Tracker red CMXRos staining based fluorescence microscopic analysis. Type of data set: ADME.
Data set [2] is described as follows: Drug localization in human HeLa cells mitochondria assessed as mander's colocalization coefficient at 25 uM within 2 hrs by Mito-Tracker red CMXRos staining based fluorescence microscopic analysis. In kind it is ADME.
The nature of data set [3]: Drug localization in human HeLa cells nucleus assessed as mander's colocalization coefficient at 25 uM after 2 to 120 mins by SYBR green I staining based fluorescence microscopic analysis. In kind it is ADME, subcellular. The conditions noted are these: time 2-120 min.
Data set [4] is described as follows: Drug localization in human HeLa cells mitochondria assessed as mander's colocalization coefficient at 25 uM after 10 to 120 mins by Mito-Tracker red CMXRos staining based fluorescence microscopic analysis. Type of data set: ADME. The following applies: time 10-120 min.

Turning to `CCN(CC)c1ccc2cc(C(=O)NCCOCC(=O)N[C@H](CCCCN)C(=O)N[C@H](CCCCN)C(=O)N[C@H](Cc3c[nH]c4ccccc34)C(=O)N[C@H](Cc3c[nH]c4ccccc34)C(=O)N[C@H](CCCCN)C(=O)N[C@H](CCCCN)C(=O)N[C@H](Cc3c[nH]c4ccccc34)C(=O)N[C@@H](C(=O)N[C@H](CCCCN)C(N)=O)C(c3ccccc3)c3ccccc3)c(=O)oc2c1`, the Drug uptake entry is given as “Active” in data set [1], over 80% in data set [2], under 20% in data set [3] and “Not Active” in data set [4].
